Experiments:
microorganisms = conditions: 1996 paper, Fundamental and Applied Toxicology; cited from earlier work
[1] = tested on: Seratia marcescens (S. marcescens); assay: Growth test of S. marcescens after exposure to sanitizer, dilution plating (Example 1); format: cell-based
Procedure: A 50 mL culture of the bacterium […] marcescens (S. marcescens) was grown, and four compounds were tested: an ethanol-based hand sanitizer currently on the market with 63% ethyl alcohol as the active ingredient, 60% isopropyl alcohol, and water as a control. 0.05 mL of the culture was exposed to one of the compounds for 15 and 60 seconds (except for the water, which was exposed for 30 seconds), and diluted by factors of powers of ten from a 10^-1 dilution to a 10^-10 dilution. 1 mL of each dilution was plated onto a CASO (a type of media) plate, and was incubated at 25 degrees Celsius (77 degrees Fahrenheit) for 48 hours. The colonies on the plates were then counted. The following is a table of the number of colonies on each plate (note-“Lawn” means that there were too many colonies to count individually).

E. coli bacteria [2] = assay: Growth test of E. coli after exposure to sanitizer, dilution plating (Example 2); format: cell-based
Procedure: A 50 mL culture of the bacterium […] marcescens (S. marcescens) was grown, and four compounds were tested: an ethanol-based hand sanitizer currently on the market with 63% ethyl alcohol as the active ingredient, 60% isopropyl alcohol, and water as a control. 0.05 mL of the culture was exposed to one of the compounds for 15 and 60 seconds (except for the water, which was exposed for 30 seconds), and diluted by factors of powers of ten from a 10^-1 dilution to a 10^-10 dilution. 1 mL of each dilution was plated onto a CASO (a type of media) plate, and was incubated at 25 degrees Celsius (77 degrees Fahrenheit) for 48 hours. The colonies on the plates were then counted. The following is a table of the number of colonies on each plate (note-“Lawn” means that there were too many colonies to count individually). Example 2 followed the same protocol as Example 1, except E. coli bacteria were used instead of S. marcescens.

E. coli bacteria [3] = assay: Growth test of E. coli, different growth medium, 0.5 mL plated (Example 3); format: cell-based; conditions: exposed 10 s
Procedure: A 50 mL culture of the bacterium […] marcescens (S. marcescens) was grown, and four compounds were tested: an ethanol-based hand sanitizer currently on the market with 63% ethyl alcohol as the active ingredient, 60% isopropyl alcohol, and water as a control. 0.05 mL of the culture was exposed to one of the compounds for 15 and 60 seconds (except for the water, which was exposed for 30 seconds), and diluted by factors of powers of ten from a 10^-1 dilution to a 10^-10 dilution. 1 mL of each dilution was plated onto a CASO (a type of media) plate, and was incubated at 25 degrees Celsius (77 degrees Fahrenheit) for 48 hours. The colonies on the plates were then counted. The following is a table of the number of colonies on each plate (note-“Lawn” means that there were too many colonies to count individually). Example 2 followed the same protocol as Example 1, except E. coli bacteria were used instead of S. marcescens. Example 3 followed the same protocol as Example 2, except for the following: A different type of growth medium was used on the plates, and 0.5 mL of culture was plated onto each plate instead of 1 mL in order to prevent flooding the plate. In this Example, 60% isopropanol, an ethanol-based hand sanitizer on the market and the hand sanitizer proposed in the patent were all exposed to bacteria for 10 seconds, than plated.

E. coli bacteria [4] = assay: Growth test of E. coli, 15 s exposure, CASO plate (Example 4); format: cell-based; conditions: exposed 15 seconds, 0.1 mL plated
Procedure: (§1) Both S. marcescens and E. coil were cultured in CASO broth overnight. The cells were exposed to one of four compounds for 15 seconds: DE broth, 60% Isopropyl Alcohol (IPA), A hand sanitizer on the market with 62% ethanol as an active ingredient (HSM), and the hand sanitizer specified in the patent (WB). The samples were then diluted by factors of powers of ten from a 10^−1 dilution to a 10^−10 dilution. 0.1 mL of each dilution was then plated onto a CASO plate, and then incubated for 24 hours. Note—the abbreviation “TNTC” stands for “too numerous to count”. “Lawn” represents a sample that was filled with bacteria.

S. marcescens bacteria [5] = assay: Growth test of S. marcescens, 15 s exposure, CASO plate (Example 4); format: cell-based; conditions: exposed 15 seconds, 0.1 mL plated
Procedure: as §1

E. coli bacteria [6] = assay: Growth test of E. coli, 15 s exposure (Example 5); format: cell-based; conditions: exposed 15 seconds
Procedure: (§2) Both S. marcescens and E. coil were cultured in CASO broth overnight. The cells were exposed to one of four compounds for 15 seconds: DE broth, 60% Isopropyl Alcohol (IPA), A hand sanitizer on the market with 62% ethanol as an active ingredient (HSM), and the hand sanitizer specified in the patent (WB). The samples were then diluted by factors of powers of ten from a 10^−1 dilution to a 10^−10 dilution. 0.1 mL of each dilution was then plated onto a CASO plate, and then incubated for 24 hours. For Example 5, there was no ethanol present in the hand sanitizer formulation. The formulation consisted of 45% by volume of n-butanol, 10% of the humectant, and the remainder being water. The protocol followed for Example 5 was the same as the protocol for Example 4.

S. marcescens bacteria [7] = assay: Growth test of S. marcescens, 15 s exposure (Example 5); format: cell-based; conditions: exposed 15 seconds
Procedure: as §2

CCCCO [1-butanol]
effectiveness in killing microorganisms compared with ethanol (microorganisms): more effective

CCCCCO [1-pentanol]
effectiveness in killing microorganisms compared with ethanol (microorganisms): more effective

CCCO [1-propanol]
effectiveness in killing microorganisms compared with ethanol (microorganisms): more effective

CC(C)O [IPA, isopropyl alcohol]
number of colonies on plate ([1]; exposed 15 s, 10^−1 dilution): 0 colonies | number of colonies on plate ([1]; exposed 15 s, 10^−2 dilution): 0 colonies | number of colonies on plate ([1]; exposed 15 s, 10^−3 dilution): 0 colonies | number of colonies on plate ([1]; exposed 15 s, 10^−4 dilution): 0 colonies | number of colonies on plate ([1]; exposed 15 s, 10^−5 dilution): 0 colonies | number of colonies on plate ([1]; exposed 15 s, 10^−6 dilution): 0 colonies | number of colonies on plate ([1]; exposed 15 s, 10^−7 dilution): 0 colonies | number of colonies on plate ([1]; exposed 15 s, 10^−8 dilution): 0 colonies | number of colonies on plate ([1]; exposed 15 s, 10^−9 dilution): 0 colonies | number of colonies on plate ([1]; exposed 15 s, 10^−10 dilution): 0 colonies | number of colonies on plate ([1]; exposed 60 s, 10^−1 dilution): 0 colonies | number of colonies on plate ([1]; exposed 60 s, 10^−2 dilution): 0 colonies | number of colonies on plate ([1]; exposed 60 s, 10^−3 dilution): 0 colonies | number of colonies on plate ([1]; exposed 60 s, 10^−4 dilution): 0 colonies | number of colonies on plate ([1]; exposed 60 s, 10^−5 dilution): 0 colonies | number of colonies on plate ([1]; exposed 60 s, 10^−6 dilution): 0 colonies | number of colonies on plate ([1]; exposed 60 s, 10^−7 dilution): 0 colonies | number of colonies on plate ([1]; exposed 60 s, 10^−8 dilution): 0 colonies | number of colonies on plate ([1]; exposed 60 s, 10^−9 dilution): 0 colonies | number of colonies on plate ([1]; exposed 60 s, 10^−10 dilution): 0 colonies | number of colonies on plate (E. coli bacteria [2]; exposed 15 s, 10^−1 dilution): 0 colonies | number of colonies on plate (E. coli bacteria [2]; exposed 15 s, 10^−2 dilution): 0 colonies | number of colonies on plate (E. coli bacteria [2]; exposed 15 s, 10^−3 dilution): 0 colonies | number of colonies on plate (E. coli bacteria [2]; exposed 15 s, 10^−4 dilution): 0 colonies | number of colonies on plate (E. coli bacteria [2]; exposed 15 s, 10^−5 dilution): 0 colonies | number of colonies on plate (E. coli bacteria [2]; exposed 15 s, 10^−6 dilution): 0 colonies | number of colonies on plate (E. coli bacteria [2]; exposed 15 s, 10^−7 dilution): 0 colonies | number of colonies on plate (E. coli bacteria [2]; exposed 15 s, 10^−8 dilution): 0 colonies | number of colonies on plate (E. coli bacteria [2]; exposed 15 s, 10^−9 dilution): 0 colonies | number of colonies on plate (E. coli bacteria [2]; exposed 15 s, 10^−10 dilution): 0 colonies | number of colonies on plate (E. coli bacteria [2]; exposed 60 s, 10^−1 dilution): 0 colonies | number of colonies on plate (E. coli bacteria [2]; exposed 60 s, 10^−2 dilution): 0 colonies | number of colonies on plate (E. coli bacteria [2]; exposed 60 s, 10^−3 dilution): 0 colonies | number of colonies on plate (E. coli bacteria [2]; exposed 60 s, 10^−4 dilution): 0 colonies | number of colonies on plate (E. coli bacteria [2]; exposed 60 s, 10^−5 dilution): 0 colonies | number of colonies on plate (E. coli bacteria [2]; exposed 60 s, 10^−6 dilution): 0 colonies | number of colonies on plate (E. coli bacteria [2]; exposed 60 s, 10^−7 dilution): 0 colonies | number of colonies on plate (E. coli bacteria [2]; exposed 60 s, 10^−8 dilution): 0 colonies | number of colonies on plate (E. coli bacteria [2]; exposed 60 s, 10^−9 dilution): 0 colonies | number of colonies on plate (E. coli bacteria [2]; exposed 60 s, 10^−10 dilution): 0 colonies | number of colonies on plate (E. coli bacteria [3]; 10^−1 dilution): 0 colonies | number of colonies on plate (E. coli bacteria [3]; 10^−2 dilution): 0 colonies | number of colonies on plate (E. coli bacteria [3]; 10^−3 dilution): 0 colonies | number of colonies on plate (E. coli bacteria [3]; 10^−4 dilution): 0 colonies | number of colonies on plate (E. coli bacteria [3]; 10^−5 dilution): 0 colonies | number of colonies on plate (E. coli bacteria [3]; 10^−6 dilution): 0 colonies | number of colonies on plate (E. coli bacteria [3]; 10^−7 dilution): 0 colonies | number of colonies on plate (E. coli bacteria [3]; 10^−8 dilution): 0 colonies | number of colonies on plate (E. coli bacteria [3]; 10^−9 dilution): 0 colonies | number of colonies on plate (E. coli bacteria [3]; 10^−10 dilution): 0 colonies | growth test plate count (E. coli bacteria [4]; 10^−1 dilution): 0 | growth test plate count (E. coli bacteria [4]; 10^−2 dilution): 0 | growth test plate count (E. coli bacteria [4]; 10^−3 dilution): 0 | growth test plate count (E. coli bacteria [4]; 10^−4 dilution): 0 | growth test plate count (E. coli bacteria [4]; 10^−5 dilution): 0 | growth test plate count (S. marcescens bacteria [5]; 10^−1 dilution): 1 | growth test plate count (S. marcescens bacteria [5]; 10^−2 dilution): 3 | growth test plate count (S. marcescens bacteria [5]; 10^−3 dilution): 10 | growth test plate count (S. marcescens bacteria [5]; 10^−4 dilution): 6 | growth test plate count (S. marcescens bacteria [5]; 10^−5 dilution): 2 | growth test plate count (E. coli bacteria [6]; 10^−1 dilution): 0 | growth test plate count (E. coli bacteria [6]; 10^−2 dilution): 0 | growth test plate count (E. coli bacteria [6]; 10^−3 dilution): 0 | growth test plate count (E. coli bacteria [6]; 10^−4 dilution): 0 | growth test plate count (E. coli bacteria [6]; 10^−5 dilution): 0 | growth test plate count (S. marcescens bacteria [7]; 10^−1 dilution): 0 | growth test plate count (S. marcescens bacteria [7]; 10^−2 dilution): 0 | growth test plate count (S. marcescens bacteria [7]; 10^−3 dilution): 0 | growth test plate count (S. marcescens bacteria [7]; 10^−4 dilution): 0 | growth test plate count (S. marcescens bacteria [7]; 10^−5 dilution): 0

— patent publication US9456602B2, “Method for the formulation of hand sanitizer” (Working Bugs, LLC, priority 2011, dated 2016)
